In ChEMBL document CHEMBL1201862, “PubChem BioAssay data set” (2004):
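All cell lines were grown in 96-well plates and treated with compound for 48 hours. GI50 marks 50% less growth.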 Activity calls are given as the source filed them. No stated cut-off is given here; in the data, active = GI50 up to about 1.1 µM and inactive = higher.

Assays:
Test in all cases: NCI tumour cell line growth inhibition, 48 h
[1] = test system: HCT-116
[2] = test system: OVCAR-8
[3] = test system: SK-MEL-2
[4] = test system: U-251
[5] = test system: Malme-3M
[6] = test system: OVCAR-4
[7] = test system: SK-MEL-5
[8] = test system: NCI-H226
[9] = test system: SNB-19
[10] = test system: UACC-257
[11] = test system: 786-0
[12] = test system: SR
[13] = test system: M14
[14] = test system: RPMI-8226
[15] = test system: TK-10
[16] = test system: MDA-MB-435
[17] = test system: EKVX
[18] = test system: MCF7
[19] = test system: MOLT-4
[20] = test system: A549

Structure (SMILES)	GI50 [1]	GI50 [2]	GI50 [3]	GI50 [4]	GI50 [5]	GI50 [6]	GI50 [7]	GI50 [8]	GI50 [9]	GI50 [10]	GI50 [11]	GI50 [12]	GI50 [13]	GI50 [14]	GI50 [15]	GI50 [16]	GI50 [17]	GI50 [18]	GI50 [19]	GI50 [20]
CCOC(=O)NC(=O)c1cn(CCCOC(=O)CCCCCCCCC(=O)OCCCn2cc(C(=O)NC(=O)OCC)c(=O)n(C)c2=O)c(=O)n(C)c1=O	> 100 µM (inactive)	> 79.4 µM (inactive)	97.1 µM (inactive)	> 100 µM (inactive)	> 100 µM (inactive)	> 100 µM (inactive)	> 100 µM (inactive)	> 100 µM (inactive)	67 µM (inactive)	> 100 µM (inactive)	> 76.6 µM (inactive)	> 100 µM (inactive)	> 100 µM (inactive)	> 100 µM (inactive)	> 86.5 µM (inactive)	> 100 µM (inactive)	> 100 µM (inactive)	> 100 µM (inactive)	> 100 µM (inactive)	> 100 µM (inactive)
CC(C)=CCCC(C)CCOS(=O)C(F)(F)F (stereo not given)	12.6 µM (inactive)	6.78 µM (inactive)	16.9 µM (inactive)	9.66 µM (inactive)	3.15 µM (inactive)	6.59 µM (inactive)	15.8 µM (inactive)	20 µM (inactive)	22.1 µM (inactive)	19.5 µM (inactive)	> 100 µM (inactive)	1.92 µM (inactive)	1.35 µM (inactive)	29.4 µM (inactive)	> 100 µM (inactive)	4.18 µM (inactive)	10.4 µM (inactive)	34.7 µM (inactive)	2.58 µM (inactive)	22.9 µM (inactive)
C[C@H](CCCOS(C)(=O)=O)[C@H]1CC[C@H]2[C@@H]3CC[C@@H]4C[C@H](OS(C)(=O)=O)CC[C@]4(C)[C@H]3CC[C@]12C	29.5 µM (inactive)	14.5 µM (inactive)	60.1 µM (inactive)	15.9 µM (inactive)	15.2 µM (inactive)	27.9 µM (inactive)	29.8 µM (inactive)	17.5 µM (inactive)	27.5 µM (inactive)	46.7 µM (inactive)	31 µM (inactive)	19.2 µM (inactive)	90.4 µM (inactive)	17.1 µM (inactive)	15.7 µM (inactive)	20.5 µM (inactive)	28.2 µM (inactive)	26.4 µM (inactive)	> 100 µM (inactive)	17 µM (inactive)
CC(=O)NC1C(OCc2ccccc2)OC(CO)C(O)C1OC(C)C(=O)NC(C(=O)NC(CCC(=O)NCCCCNc1c2ccccc2nc2cccc([N+](=O)[O-])c12)C(N)=O)C(C)C (stereo not given)	0.975 µM (active)	1.91 µM (inactive)	2.52 µM (inactive)	3.21 µM (inactive)	1.82 µM (inactive)	1.24 µM (inactive)	2.22 µM (inactive)	3.27 µM (inactive)	4.84 µM (inactive)	3.14 µM (inactive)	1.81 µM (inactive)	0.178 µM (active)	1.62 µM (inactive)	0.76 µM (active)	3.1 µM (inactive)	1.45 µM (inactive)	2.65 µM (inactive)	0.499 µM (active)	0.515 µM (active)	1.29 µM (inactive)
CC(=O)Nc1oc(C)c(C)c1S(=O)(=O)c1ccc(Cl)cc1	55 µM (inactive)	45.7 µM (inactive)	28.4 µM (inactive)	92 µM (inactive)	40.2 µM (inactive)	39.1 µM (inactive)	27.8 µM (inactive)	34.4 µM (inactive)	> 100 µM (inactive)	41 µM (inactive)	98.9 µM (inactive)	51.5 µM (inactive)	63.8 µM (inactive)	35.6 µM (inactive)	60.5 µM (inactive)	33.5 µM (inactive)	39.4 µM (inactive)	19.5 µM (inactive)	39.4 µM (inactive)	52 µM (inactive)
Cc1ccc(C(=O)O)c(/C=C2\Cc3ccc(C)cc3C2=O)c1	44.2 µM (inactive)	61.5 µM (inactive)	32 µM (inactive)	34 µM (inactive)	95.9 µM (inactive)	50.5 µM (inactive)	25.1 µM (inactive)	28.2 µM (inactive)	45.1 µM (inactive)	78.5 µM (inactive)	62.2 µM (inactive)	32.5 µM (inactive)	> 100 µM (inactive)	19.5 µM (inactive)	> 100 µM (inactive)	38 µM (inactive)	98.9 µM (inactive)	63.5 µM (inactive)	33.6 µM (inactive)	91.2 µM (inactive)
CCOC(OCC)C(CCc1ccccc1)c1c(N)nc(N)[nH]c1=O (stereo not given)	65.3 µM (inactive)	> 100 µM (inactive)	53 µM (inactive)	81.1 µM (inactive)	> 100 µM (inactive)	46.1 µM (inactive)	47.6 µM (inactive)	41.2 µM (inactive)	> 100 µM (inactive)	> 100 µM (inactive)	89.7 µM (inactive)	32.4 µM (inactive)	80.5 µM (inactive)	38.6 µM (inactive)	66.2 µM (inactive)	32.4 µM (inactive)	3.76 µM (inactive)	33.1 µM (inactive)	34.3 µM (inactive)	54.1 µM (inactive)
O=c1ccs[nH]1	8.79 µM (inactive)	12.7 µM (inactive)	28.3 µM (inactive)	7.21 µM (inactive)	8.91 µM (inactive)	16 µM (inactive)	5.78 µM (inactive)	51.1 µM (inactive)	32.1 µM (inactive)	8.91 µM (inactive)	6.15 µM (inactive)	2.54 µM (inactive)	9.89 µM (inactive)	2.7 µM (inactive)	13.8 µM (inactive)	13.6 µM (inactive)	3.37 µM (inactive)	8.36 µM (inactive)	4.53 µM (inactive)	19.9 µM (inactive)
O=C(NNC(=O)c1ccccc1S)c1ccccc1S [BIS(THIOSALICYL)HYDRAZIDE]	6.79 µM (inactive)	12 µM (inactive)	43.9 µM (inactive)	15.1 µM (inactive)	23.7 µM (inactive)	15.6 µM (inactive)	23 µM (inactive)	15.5 µM (inactive)	23.4 µM (inactive)	13.8 µM (inactive)	9.42 µM (inactive)	13.5 µM (inactive)	10.3 µM (inactive)	18.4 µM (inactive)	> 25 µM (inactive)	14.6 µM (inactive)	8.34 µM (inactive)	10 µM (inactive)	7.11 µM (inactive)	14.3 µM (inactive)
CC1(O)CC2(O)C=CC3=C(C(=O)c4cccc(O)c4C3=O)C2(O)C(=O)C1O (stereo not given)	0.863 µM (active)	3.56 µM (inactive)	4.18 µM (inactive)	4.04 µM (inactive)	0.406 µM (active)	1.51 µM (inactive)	3.3 µM (inactive)	10.6 µM (inactive)	16.6 µM (inactive)	1.25 µM (inactive)	1.96 µM (inactive)	2.3 µM (inactive)	1.37 µM (inactive)	1.26 µM (inactive)	1.73 µM (inactive)	1.8 µM (inactive)	2.44 µM (inactive)	0.624 µM (active)	0.56 µM (active)	9.95 µM (inactive)
